# Data reported in patent publication US8192962B2, “Processes for detecting toxic substances” (Daikin Industries, Ltd., priority 2001, dated 2012).
# Tested on: Genes belonging to other category
# Experiment: DNA chip mRNA expression in yeast, genes belonging to other category (Table 9)
# Format: cell-based, Saccharomyces cerevisiae S288C
# Method in brief: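 Expression change after 2 h toxicant exposure (growth-inhibiting, sub-lethal) of log-phase S. cerevisiae S288C at 25° C. Oligo-dT-purified mRNA was labeled with Cy3-dUTP or Cy5-dUTP and hybridized >12 h at 65° C. to a genome-wide chip; ratio of scanned fluorescence to control.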
substance,measurement,setting,value
Na2As [(1)],The level of expressed mRNA in the presence of chemical substance/The level of expressed mRNA in the absence of chemical substance,yeast gene YAR010C,0.8
same,The level of expressed mRNA in the presence of chemical substance/The level of expressed mRNA in the absence of chemical substance,yeast gene YBL005W-A,1.0
same,The level of expressed mRNA in the presence of chemical substance/The level of expressed mRNA in the absence of chemical substance,yeast gene YBL041W,1.2
same,The level of expressed mRNA in the presence of chemical substance/The level of expressed mRNA in the absence of chemical substance,yeast gene YBL043W,1.2
same,The level of expressed mRNA in the presence of chemical substance/The level of expressed mRNA in the absence of chemical substance,yeast gene YBL078C,2.3
same,The level of expressed mRNA in the presence of chemical substance/The level of expressed mRNA in the absence of chemical substance,yeast gene YBR214W,0.9
same,The level of expressed mRNA in the presence of chemical substance/The level of expressed mRNA in the absence of chemical substance,yeast gene YCL020W,1.1
same,The level of expressed mRNA in the presence of chemical substance/The level of expressed mRNA in the absence of chemical substance,yeast gene YCL027W,0.7
same,The level of expressed mRNA in the presence of chemical substance/The level of expressed mRNA in the absence of chemical substance,yeast gene YCR004C,1.7
same,The level of expressed mRNA in the presence of chemical substance/The level of expressed mRNA in the absence of chemical substance,yeast gene YCR071C,1.1
same,The level of expressed mRNA in the presence of chemical substance/The level of expressed mRNA in the absence of chemical substance,yeast gene YCR088W,0.9
same,The level of expressed mRNA in the presence of chemical substance/The level of expressed mRNA in the absence of chemical substance,yeast gene YDL008W,1.1
same,The level of expressed mRNA in the presence of chemical substance/The level of expressed mRNA in the absence of chemical substance,yeast gene YDL238C,0.7
same,The level of expressed mRNA in the presence of chemical substance/The level of expressed mRNA in the absence of chemical substance,yeast gene YDR055W,1.7
same,The level of expressed mRNA in the presence of chemical substance/The level of expressed mRNA in the absence of chemical substance,yeast gene YDR084C,0.9
same,The level of expressed mRNA in the presence of chemical substance/The level of expressed mRNA in the absence of chemical substance,yeast gene YDR085C,1.9
same,The level of expressed mRNA in the presence of chemical substance/The level of expressed mRNA in the absence of chemical substance,yeast gene YDR104C,0.8
same,The level of expressed mRNA in the presence of chemical substance/The level of expressed mRNA in the absence of chemical substance,yeast gene YDR115W,1.3
same,The level of expressed mRNA in the presence of chemical substance/The level of expressed mRNA in the absence of chemical substance,yeast gene YDR259C,1.4
same,The level of expressed mRNA in the presence of chemical substance/The level of expressed mRNA in the absence of chemical substance,yeast gene YDR315C,1.0
same,The level of expressed mRNA in the presence of chemical substance/The level of expressed mRNA in the absence of chemical substance,yeast gene YDR358W,0.7
same,The level of expressed mRNA in the presence of chemical substance/The level of expressed mRNA in the absence of chemical substance,yeast gene YDR388W,0.7
same,The level of expressed mRNA in the presence of chemical substance/The level of expressed mRNA in the absence of chemical substance,yeast gene YDR432W,0.5
same,The level of expressed mRNA in the presence of chemical substance/The level of expressed mRNA in the absence of chemical substance,yeast gene YDR481C,0.7
same,The level of expressed mRNA in the presence of chemical substance/The level of expressed mRNA in the absence of chemical substance,yeast gene YDR510W,1.0
same,The level of expressed mRNA in the presence of chemical substance/The level of expressed mRNA in the absence of chemical substance,yeast gene YEL042W,0.6
same,The level of expressed mRNA in the presence of chemical substance/The level of expressed mRNA in the absence of chemical substance,yeast gene YEL066W,2.0
same,The level of expressed mRNA in the presence of chemical substance/The level of expressed mRNA in the absence of chemical substance,yeast gene YER039C,1.0
same,The level of expressed mRNA in the presence of chemical substance/The level of expressed mRNA in the absence of chemical substance,yeast gene YER107C,0.9
same,The level of expressed mRNA in the presence of chemical substance/The level of expressed mRNA in the absence of chemical substance,yeast gene YER130C,0.9
same,The level of expressed mRNA in the presence of chemical substance/The level of expressed mRNA in the absence of chemical substance,yeast gene YFL022C,0.8
same,The level of expressed mRNA in the presence of chemical substance/The level of expressed mRNA in the absence of chemical substance,yeast gene YFL028C,1.2
same,The level of expressed mRNA in the presence of chemical substance/The level of expressed mRNA in the absence of chemical substance,yeast gene YFL043C,1.0
same,The level of expressed mRNA in the presence of chemical substance/The level of expressed mRNA in the absence of chemical substance,yeast gene YGL158W,1.1
same,The level of expressed mRNA in the presence of chemical substance/The level of expressed mRNA in the absence of chemical substance,yeast gene YGL229C,0.6
same,The level of expressed mRNA in the presence of chemical substance/The level of expressed mRNA in the absence of chemical substance,yeast gene YGR136W,0.9
same,The level of expressed mRNA in the presence of chemical substance/The level of expressed mRNA in the absence of chemical substance,yeast gene YGR189C,1.1
same,The level of expressed mRNA in the presence of chemical substance/The level of expressed mRNA in the absence of chemical substance,yeast gene YGR213C,5.4
same,The level of expressed mRNA in the presence of chemical substance/The level of expressed mRNA in the absence of chemical substance,yeast gene YGR257C,0.7
same,The level of expressed mRNA in the presence of chemical substance/The level of expressed mRNA in the absence of chemical substance,yeast gene YHR004C,0.9
same,The level of expressed mRNA in the presence of chemical substance/The level of expressed mRNA in the absence of chemical substance,yeast gene YHR071W,1.5
same,The level of expressed mRNA in the presence of chemical substance/The level of expressed mRNA in the absence of chemical substance,yeast gene YHR139C,3.0
same,The level of expressed mRNA in the presence of chemical substance/The level of expressed mRNA in the absence of chemical substance,yeast gene YHR142W,1.5
same,The level of expressed mRNA in the presence of chemical substance/The level of expressed mRNA in the absence of chemical substance,yeast gene YIL123W,1.0
same,The level of expressed mRNA in the presence of chemical substance/The level of expressed mRNA in the absence of chemical substance,yeast gene YIL140W,0.7
same,The level of expressed mRNA in the presence of chemical substance/The level of expressed mRNA in the absence of chemical substance,yeast gene YJL073W,0.8
same,The level of expressed mRNA in the presence of chemical substance/The level of expressed mRNA in the absence of chemical substance,yeast gene YJL089W,1.1
same,The level of expressed mRNA in the presence of chemical substance/The level of expressed mRNA in the absence of chemical substance,yeast gene YJL116C,0.9
same,The level of expressed mRNA in the presence of chemical substance/The level of expressed mRNA in the absence of chemical substance,yeast gene YJR004C,0.2
same,The level of expressed mRNA in the presence of chemical substance/The level of expressed mRNA in the absence of chemical substance,yeast gene YJR086W,1.2
